How the values were obtained:
Cavia porcellus [1] = organism: Cavia porcellus; experiment: Inhibitory concentration required to suppress the contractile force of guinea pig right atria; format: functional
Cavia porcellus [2] = organism: Cavia porcellus; experiment: Inhibitory concentration required to block Ca+2 induced contraction of K+ depolarized guinea pig taenia cecum; format: functional, Caecum
[3] = Selectivity ratio of IC50 for [Ca2+] antagonistic activity in aorta / IC50 for suppressive effect on contractile force; format: functional
Cavia porcellus [4] = organism: Cavia porcellus; experiment: Inhibitory concentration required to block Ca+2 induced contraction of K+ depolarized guinea pig aorta; format: functional
Cavia porcellus [5] = organism: Cavia porcellus; experiment: Inhibitory concentration required to suppress the rate of contraction of guinea pig right atria; format: functional
[6] = Selectivity ratio of IC50 for [Ca2+] antagonistic activity in aorta / IC50 for suppressive effect on rate of contraction; format: functional

IC50 (Cavia porcellus [1]) [nM] | IC50 (Cavia porcellus [2]; Cavia porcellus, Caecum) [nM] | IC50 (Cavia porcellus [4]) [nM] | IC50 (Cavia porcellus [5]; read-out: IC50) [nM] | IC50 (Cavia porcellus [2]) [nM] | IC50 (Cavia porcellus [5]) [nM] | Structure (SMILES) | Ratio [3] | Ratio [6]
440 | 230 | 2900 | 600 |  |  | COc1ccc(OCCCCN(C)CCOc2ccc(OC)c(OC)c2)c(C2Sc3ccccc3N(C)C2=O)c1 (stereo unspecified) | 6.6 | 4.8
94 | 170 | 330 | 190 |  |  | COc1ccc(OCCCCN(C)CCOc2ccc3c(c2)OCO3)c(C2Sc3ccccc3N(C)C2=O)c1 (stereo unspecified) | 3.5 | 1.7
 | 530 |  |  |  |  | COc1ccc(OCCN(C)CCCCOc2ccc(OC)cc2C2Sc3ccccc3N(C)C2=O)cc1 (stereo unspecified) |  | 
 | > 10000 |  |  |  |  | COc1ccc(OCCCN(C)CCOc2ccc3c(c2)OCO3)c(C2(C(C)C)Sc3ccccc3N(C)C2=O)c1 (stereo unspecified) |  | 
200 | 160 | 1500 | 190 |  |  | COc1ccc(OCCCCN(C)CCOc2cc(OC)c(OC)c(OC)c2)c(C2Sc3ccccc3N(C)C2=O)c1 (stereo unspecified) | 7.5 | 7.9
 | 350 |  |  |  |  | COc1ccc(OCCCCN(C)CCc2cc(OC)c(OC)c(OC)c2)c(C2Sc3ccccc3N(C)C2=O)c1 (stereo unspecified) |  | 
 | 1900 |  |  |  |  | COc1ccc(OCCCN(CCOc2ccc3c(c2)OCO3)C(C)C)c(C2Sc3ccccc3N(C)C2=O)c1 (stereo unspecified) |  | 
520 | 270 | 2400 | 400 |  |  | COc1ccc(OCCCN(C)CCc2cc(OC)c(OC)c(OC)c2)c(C2Sc3ccccc3N(C)C2=O)c1 (stereo unspecified) | 4.6 | 6
 | 490 |  |  |  |  | COc1ccc(OCCCNCCOc2ccc3c(c2)OCO3)c(C2Sc3ccccc3N(C)C2=O)c1 (stereo unspecified) |  | 
 | 2100 |  |  |  |  | COc1ccc(OCCCN(C)CCOc2ccc3c(c2)OCO3)c(C2(C)Sc3ccccc3N(C)C2=O)c1 (stereo unspecified) |  | 
 | 550 |  |  |  |  | COc1cc(OC)cc(OCCN(C)CCCOc2ccc(OC)cc2C2Sc3ccccc3N(C)C2=O)c1 (stereo unspecified) |  | 
 | 1500 |  |  |  |  | COc1ccc(OCCCN(C)CCOc2ccc3c(c2)OCO3)c(C2(SC)Sc3ccccc3N(C)C2=O)c1 (stereo unspecified) |  | 
 | > 10000 |  |  |  |  | COc1ccc(OCCCN(C)CCOc2ccc3c(c2)CCC3)c(C2Sc3ccccc3N(C)C2=O)c1 (stereo unspecified) |  | 
370 | 230 | 4100 | 500 |  |  | COc1ccc(OCCCN(C)CCOc2cc(OC)c(OC)c(OC)c2)c(C2Sc3ccccc3N(C)C2=O)c1 (stereo unspecified) | 11.1 | 8.2
 | 510 |  |  |  |  | COc1ccc(OCCCN(C)CCOc2c(OC)cccc2OC)c(C2Sc3ccccc3N(C)C2=O)c1 (stereo unspecified) |  | 
 | 250 |  |  |  |  | COc1ccc(OCCCN(C)CCOc2ccc3c(c2)OCO3)c(C2(OC)Sc3ccccc3N(C)C2=O)c1 (stereo unspecified) |  | 
 | > 10000 |  |  |  |  | COc1ccc(OCCCN(C)CCOc2ccc3c(c2)OCO3)c(C2CN(C)c3ccccc3S2)c1 (stereo unspecified) |  | 
 | > 10000 |  |  |  |  | COc1ccc(OCCCN(C)CCOc2ccc3c(c2)OCO3)c(C2Sc3ccccc3N(C)C2=S)c1 (stereo unspecified) |  | 
310 |  | 660 | 590 | 180 |  | COc1ccc(OCCCN(C)CCOc2ccc3c(c2)OCO3)c(C2Sc3ccccc3N(C)C2=O)c1 (stereo in doubt; 15) | 2.1 | 1.1
 |  |  |  | 600 |  | COc1ccc(OCCCN(C)CCOc2ccc3c(c2)OCO3)c(C2Sc3ccccc3N(C)C2=O)c1 (stereo in doubt; (-)-15) |  | 
95 |  | 4500 | 600 |  |  | COc1ccc([C@@H]2Sc3ccccc3N(CCN(C)C)C(=O)[C@@H]2OC(C)=O)cc1 [DILTIAZEM] | 47.4 | 7.5
68 | 89 | 230 | 180 |  |  | COc1ccc(OCCCN(C)CCOc2ccc3c(c2)OCO3)c([C@H]2Sc3ccccc3N(C)C2=O)c1 [SEMOTIADIL] | 3.4 | 1.3
35 |  | 620 |  |  | 210 | COc1ccc(CCN(C)CCCC(C#N)(c2ccc(OC)c(OC)c2)C(C)C)cc1OC (stereo unspecified) [VERAPAMIL] | 17.7 | 3

Reference: ChEMBL document CHEMBL1124817, “Synthesis and Ca2+ antagonistic activity of 2-[2-[(aminoalkyl)oxy]-5-methoxyphenyl]-3,4-dihydro-4-methyl-3-oxo-2H- 1,4-benzothiazines” (J Med Chem, 1990)
